Here are results for 2 compounds from PubChem BioAssay AID1259407 (Chemical Carcinogenesis Research Information System (CCRIS), 2018).

The structures appear in SMILES notation. Active and inactive are the calls of the source. The rule behind the calls is not given here.

For the series, the system named is CCRIS mutagenicity, Ames/micronucleus/aberration tests. Kind of series: CCRIS mutagenicity studies.

In the case of `C=CC(=O)OC`, the mutagenic call (Test System: AMES SALMONELLA TYPHIMURIUM, Strain/Indicator: TA97, Metabolic Activation: HAMSTER, LIVER, S-9, AROCLOR 1254 (10%), Method: PREINCUBATION) is “inactive; negative”; the mutagenic call (Test System: AMES SALMONELLA TYPHIMURIUM, Strain/Indicator: TA97, Metabolic Activation: HAMSTER, LIVER, S-9, AROCLOR 1254 (30%), Method: PREINCUBATION) is “inactive; negative”; the mutagenic call (Test System: AMES SALMONELLA TYPHIMURIUM, Strain/Indicator: TA97, Metabolic Activation: NONE, Method: PREINCUBATION) was “inactive; negative”; the mutagenic call (Test System: AMES SALMONELLA TYPHIMURIUM, Strain/Indicator: TA97, Metabolic Activation: RAT, LIVER, S-9, AROCLOR 1254 (10 OR 30%), Method: PREINCUBATION) was “inactive; negative”; the mutagenic call (Test System: AMES SALMONELLA TYPHIMURIUM, Strain/Indicator: TA98, Metabolic Activation: HAMSTER, LIVER, S-9, AROCLOR 1254 (10%), Method: PREINCUBATION) is “inactive; negative”; the mutagenic call (Test System: AMES SALMONELLA TYPHIMURIUM, Strain/Indicator: TA98, Metabolic Activation: HAMSTER, LIVER, S-9, AROCLOR 1254 (30%), Method: PREINCUBATION) is “inactive; negative”. The mutagenic call (Test System: AMES SALMONELLA TYPHIMURIUM, Strain/Indicator: TA98, Metabolic Activation: NONE, Method: PREINCUBATION) was “inactive; negative”; the mutagenic call (Test System: AMES SALMONELLA TYPHIMURIUM, Strain/Indicator: TA98, Metabolic Activation: NONE, Method: STANDARD PLATE) is “inactive; negative”; the mutagenic call (Test System: AMES SALMONELLA TYPHIMURIUM, Strain/Indicator: TA98, Metabolic Activation: RAT, LIVER, S-9, AROCLOR 1254 (10%), Method: PREINCUBATION) was “inactive; negative”; the mutagenic call (Test System: AMES SALMONELLA TYPHIMURIUM, Strain/Indicator: TA98, Metabolic Activation: RAT, LIVER, S-9, AROCLOR 1254 (30%), Method: PREINCUBATION) is “inactive; negative”; the mutagenic call (Test System: AMES SALMONELLA TYPHIMURIUM, Strain/Indicator: TA98, Metabolic Activation: RAT, LIVER, S-9, AROCLOR 1254, Method: STANDARD PLATE) was “inactive; negative”; the mutagenic call (Test System: AMES SALMONELLA TYPHIMURIUM, Strain/Indicator: TA98, Metabolic Activation: RAT, LIVER, S-9, SODIUM PHENOBARBITAL, Method: STANDARD PLATE) was “inactive; negative”. The mutagenic call is “inactive; negative” (Test System: AMES SALMONELLA TYPHIMURIUM, Strain/Indicator: TA100, Metabolic Activation: HAMSTER, LIVER, S-9, AROCLOR 1254 (10%), Method: PREINCUBATION); “inactive; negative” (Test System: AMES SALMONELLA TYPHIMURIUM, Strain/Indicator: TA100, Metabolic Activation: HAMSTER, LIVER, S-9, AROCLOR 1254 (30%), Method: PREINCUBATION); “inactive; negative” (Test System: AMES SALMONELLA TYPHIMURIUM, Strain/Indicator: TA100, Metabolic Activation: NONE, Method: PREINCUBATION); “inactive; negative” (Test System: AMES SALMONELLA TYPHIMURIUM, Strain/Indicator: TA100, Metabolic Activation: NONE, Method: STANDARD PLATE); “inactive; negative” (Test System: AMES SALMONELLA TYPHIMURIUM, Strain/Indicator: TA100, Metabolic Activation: RAT, LIVER, S-9, AROCLOR 1254 (10 OR 30%), Method: PREINCUBATION); “inactive; negative” (Test System: AMES SALMONELLA TYPHIMURIUM, Strain/Indicator: TA100, Metabolic Activation: RAT, LIVER, S-9, AROCLOR 1254, Method: PREINCUBATION). Also, the mutagenic call is “inactive; negative” (Test System: AMES SALMONELLA TYPHIMURIUM, Strain/Indicator: TA100, Metabolic Activation: RAT, LIVER, S-9, AROCLOR 1254, Method: STANDARD PLATE); “inactive; negative” (Test System: AMES SALMONELLA TYPHIMURIUM, Strain/Indicator: TA100, Metabolic Activation: RAT, LIVER, S-9, SODIUM PHENOBARBITAL, Method: STANDARD PLATE); “inactive; negative” (Test System: AMES SALMONELLA TYPHIMURIUM, Strain/Indicator: TA1535, Metabolic Activation: HAMSTER, LIVER, S-9, AROCLOR 1254 (10%), Method: PREINCUBATION); “inactive; negative” (Test System: AMES SALMONELLA TYPHIMURIUM, Strain/Indicator: TA1535, Metabolic Activation: HAMSTER, LIVER, S-9, AROCLOR 1254 (30%), Method: PREINCUBATION); “inactive; negative” (Test System: AMES SALMONELLA TYPHIMURIUM, Strain/Indicator: TA1535, Metabolic Activation: NONE, Method: PREINCUBATION); “inactive; negative” (Test System: AMES SALMONELLA TYPHIMURIUM, Strain/Indicator: TA1535, Metabolic Activation: NONE, Method: STANDARD PLATE). Besides, the mutagenic call reads like this: (Test System: AMES SALMONELLA TYPHIMURIUM, Strain/Indicator: TA1535, Metabolic Activation: RAT, LIVER, S-9, AROCLOR 1254 (10%), Method: PREINCUBATION) “inactive; negative”; (Test System: AMES SALMONELLA TYPHIMURIUM, Strain/Indicator: TA1535, Metabolic Activation: RAT, LIVER, S-9, AROCLOR 1254 (30%), Method: PREINCUBATION) “inactive; negative”; (Test System: AMES SALMONELLA TYPHIMURIUM, Strain/Indicator: TA1535, Metabolic Activation: RAT, LIVER, S-9, AROCLOR 1254, Method: STANDARD PLATE) “inactive; negative”; (Test System: AMES SALMONELLA TYPHIMURIUM, Strain/Indicator: TA1535, Metabolic Activation: RAT, LIVER, S-9, SODIUM PHENOBARBITAL, Method: STANDARD PLATE) “inactive; negative”; (Test System: AMES SALMONELLA TYPHIMURIUM, Strain/Indicator: TA1537, Metabolic Activation: HAMSTER, LIVER, S-9, AROCLOR 1254 (10%), Method: PREINCUBATION) “inactive; negative”; (Test System: AMES SALMONELLA TYPHIMURIUM, Strain/Indicator: TA1537, Metabolic Activation: NONE, Method: PREINCUBATION) “inactive; negative”. The mutagenic call reads like this: (Test System: AMES SALMONELLA TYPHIMURIUM, Strain/Indicator: TA1537, Metabolic Activation: NONE, Method: STANDARD PLATE) “inactive; negative”; (Test System: AMES SALMONELLA TYPHIMURIUM, Strain/Indicator: TA1537, Metabolic Activation: RAT, LIVER, S-9, AROCLOR 1254 (10%), Method: PREINCUBATION) “inactive; negative”; (Test System: AMES SALMONELLA TYPHIMURIUM, Strain/Indicator: TA1537, Metabolic Activation: RAT, LIVER, S-9, AROCLOR 1254, Method: STANDARD PLATE) “inactive; negative”; (Test System: AMES SALMONELLA TYPHIMURIUM, Strain/Indicator: TA1537, Metabolic Activation: RAT, LIVER, S-9, SODIUM PHENOBARBITAL, Method: STANDARD PLATE) “inactive; negative”; (Test System: AMES SALMONELLA TYPHIMURIUM, Strain/Indicator: TA1538, Metabolic Activation: NONE, Method: STANDARD PLATE) “inactive; negative”; (Test System: AMES SALMONELLA TYPHIMURIUM, Strain/Indicator: TA1538, Metabolic Activation: RAT, LIVER, S-9, AROCLOR 1254, Method: STANDARD PLATE) “inactive; negative”. Besides, the mutagenic call reads like this: (Test System: AMES SALMONELLA TYPHIMURIUM, Strain/Indicator: TA1538, Metabolic Activation: RAT, LIVER, S-9, SODIUM PHENOBARBITAL, Method: STANDARD PLATE) “inactive; negative”; (Test System: CHINESE HAMSTER OVARY, Strain/Indicator: CHO-K1-BH4 (HGPRT)/6-THIOGUANINE, Metabolic Activation: NONE, Method: SUSPENSION/PLATE) “active; positive”; (Test System: CHINESE HAMSTER OVARY, Strain/Indicator: CHO-K1-BH4 (HGPRT), Metabolic Activation: NONE, Method: SUSPENSION/PLATE) “active; positive”; (Test System: MOUSE LYMPHOMA, Strain/Indicator: L5178Y (TK+/TK-), Metabolic Activation: RAT, LIVER, S-9, AROCLOR 1254, Method: SUSPENSION/PLATE) “active; positive. reevaluation of results: positive”.
Regarding `COC(=O)/C=C/C(C)=C\C=C\C(C)=C\C=C\C=C(C)\C=C\C=C(C)\C=C\C(=O)O`, the mutagenic call is “inactive; negative” (Test System: Mouse lymphoma, Strain/Indicator: L5178Y (tk+/tk-), Metabolic Activation: None, Method: Suspension/plate) and “inactive; negative” (Test System: Mouse lymphoma, Strain/Indicator: L5178Y (tk+/tk-), Metabolic Activation: Rat, Liver, S-9, Aroclor 1254, Method: Suspension/plate).
